Data: article PMC7658068, “Effects of a novel variant of the yeast γ-glutamyl kinase Pro1 on its enzymatic activity and sake brewing” (Journal of Industrial Microbiology & Biotechnology, 2020)

Assays:
[1] = biological target: T1, γ-glutamyl kinase Pro1 (GK) (Saccharomyces cerevisiae, UniProt P32264); assay: PK/LDH-coupled ADP assay, NADH at […] nm; format: biochemical; design: full-length ORF in pET15b (NdeI/XhoI), His-tag, E. coli BL21(DE3), Ni Sepharose; tag removal not mentioned; settings: 400 mM sodium glutamate, 5 mM ATP, 10 mM MgCl2, 100 mM HEPES-NaOH pH 7.4, 30 °C; no proline
T1 sequence (P32264 1-428): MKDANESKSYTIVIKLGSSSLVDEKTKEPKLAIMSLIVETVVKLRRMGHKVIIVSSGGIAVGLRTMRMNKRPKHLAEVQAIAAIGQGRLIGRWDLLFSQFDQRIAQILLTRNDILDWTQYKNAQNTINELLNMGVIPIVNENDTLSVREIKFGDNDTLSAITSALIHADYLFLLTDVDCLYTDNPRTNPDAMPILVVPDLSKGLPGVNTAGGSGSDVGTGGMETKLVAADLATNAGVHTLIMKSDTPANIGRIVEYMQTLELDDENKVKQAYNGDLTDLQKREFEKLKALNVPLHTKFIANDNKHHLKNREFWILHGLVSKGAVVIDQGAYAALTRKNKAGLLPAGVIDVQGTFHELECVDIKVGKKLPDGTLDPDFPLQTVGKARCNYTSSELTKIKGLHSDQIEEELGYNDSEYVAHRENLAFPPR

[2] = biological target: T1, γ-glutamyl kinase Pro1 (GK); settings: 400 mM sodium glutamate, 5 mM ATP, 10 mM MgCl2, 100 mM HEPES-NaOH pH 7.4, 30 °C; allosteric feedback inhibition
[3] = biological target: γ-glutamyl kinase Pro1 (GK) (Saccharomyces cerevisiae, UniProt P32264, Q79H); assay: biochemical; settings: read-out: relative activity at 100 mM proline
Sequence of γ-glutamyl kinase Pro1 (GK) (Saccharomyces cerevisiae, UniProt P32264, Q79H) (P32264 whole entry Q79H): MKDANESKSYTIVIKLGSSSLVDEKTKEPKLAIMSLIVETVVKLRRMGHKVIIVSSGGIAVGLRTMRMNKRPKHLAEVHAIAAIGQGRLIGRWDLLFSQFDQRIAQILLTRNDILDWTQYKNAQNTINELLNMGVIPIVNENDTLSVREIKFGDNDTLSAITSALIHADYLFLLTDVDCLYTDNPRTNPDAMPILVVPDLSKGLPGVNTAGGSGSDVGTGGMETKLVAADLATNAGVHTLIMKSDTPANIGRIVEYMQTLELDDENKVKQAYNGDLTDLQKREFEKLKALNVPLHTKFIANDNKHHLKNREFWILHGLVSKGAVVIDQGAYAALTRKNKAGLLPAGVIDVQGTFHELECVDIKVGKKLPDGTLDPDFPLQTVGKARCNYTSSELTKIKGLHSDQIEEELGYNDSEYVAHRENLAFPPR

[4] = biological target: γ-glutamyl kinase Pro1 (GK) (Saccharomyces cerevisiae, UniProt P32264, I150T); assay: biochemical; settings: read-out: relative activity at 100 mM proline
Sequence of γ-glutamyl kinase Pro1 (GK) (Saccharomyces cerevisiae, UniProt P32264, I150T) (P32264 whole entry I150T): as the sequence (P32264 whole entry Q79H) above, with H79Q, I150T counted along it

N[C@@H](CCC(=O)O)C(=O)O [glutamate]
PK/LDH-coupled ADP assay, NADH at 340 nm [1]: the reaction was initiated by the addition of sodium glutamate

Nc1ncnc2c1ncn2[C@@H]1O[C@H](COP(=O)(O)OP(=O)(O)OP(=O)(O)O)[C@@H](O)[C@H]1O [ATP]
PK/LDH-coupled ADP assay, NADH at 340 nm [1]: GK activity was measured by the production of ADP in an enzyme-coupled system

O=C(O)[C@@H]1CCCN1 [proline]
relative activity with 0-5 mM proline [2]: in the presence of proline, the GK activity of WT was markedly inhibited | activity at 100000 µM [3]: 96% | activity at 100000 µM [4]: 59%
